One data set relates to honeybees. Nature of the data set: Honeybee repulsion feeding station experiment, repellent in 50% sucrose solution. Format: in vivo. Conditions: 2% by weight with 50% sucrose. As for the experimental part: FIG. 1 describes the feeding station arrangement (A and B) for the honeybee repulsion experiments described herein. As set forth in FIG. 1, panel (A) sets forth the bee cage positions on the left portion of panel (A) with the randomized feeding station positions on the right portion of panel (A). Panel (B) sets forth an alignment of the randomized feeding station positions with a distance of two meters between feeding stations. A total of eight feeding stations were evaluated at a ten meter distance in front of the respective bee hives. The feeding stations were placed two meters apart from one another.
Honeybees were trained to deep feeders (eight positions), each containing a 50% sucrose solution for one day. After the honeybees were trained to each feeder, the 50% sucrose feeder at randomized positions 1-8 was replaced with a shallow feeder containing a combination of repelling compounds and a 50% sucrose solution according to Table 5. In accordance with FIGS. 5 and 6, 2% by weight of Camphor oil (T4), Ajowan oil (T5), Camphor powder (T6), Rosemary oil (T7), and 2-Decanone (T8) in combination with a 50% sucrose treatment were added to feeders on day two.
Table 5 describes active agents evaluated for bee repulsion and their randomized feeding station positions. As described in Table 5, T1 (control), T2 (control), T3 (control), T4 (Camphor oil), T5 (Ajowan oil), T6 (Camphor powder), T7 (Rosemary oil), and T8 (2-Decanone).
FIG. 5 evaluates the number of bees visiting a respective feed station over a time interval. FIG. 6 sets forth the mean number of honeybees visiting feeding station over a period of four hours.

Data set [1] in a line: Stability test of Poncho 600 with Eugenol, clothianidin content by HPLC. Format: physicochemical. Conditions: combined with Eugenol; up to 54° C. for seven days. The protocol:
Table 6 describes a stability test with a combination of Eugenol and Poncho evaluated at room temperature, 40° C., and 54° C. at zero time, 3 days, and 7 days as confirmed by high performance liquid chromatography (HPLC).

A short description of data set [2]: Stability test of Poncho 600 with α-terpineol, clothianidin content by HPLC. It is filed as physicochemical. The note with it: combined with alpha-terpineol; up to 54° C. for eight days. The protocol: Table 7 describes a stability test with a combination of α-terpineol and Poncho 600 evaluated at room temperature, 40° C., and 54° C. at zero time, 2 days, and 8 days as confirmed by HPLC.

As for `CCCCCCCCC(C)=O` [Compound 2-decanone, 2-decanone], the “repellency to honeybees over the full 4 hour assessment period” value with honeybees (4 hours) is given as “highly repellent”. For the same compound, the “repellency to honeybees at 24 hours” value is reported as “still repellent” in the data set on honeybees and “exhibited repellency” in the data set with honeybees (listed as 2-Decanone).
Consider `CN/C(=N\[N+](=O)[O-])NCc1cnc(Cl)s1` [clothianidin], for which the “chemical stability of clothianidin content” value in data set [1] and in data set [2] was “exhibited chemical stability” throughout.

The values above are taken from US11963527B2, “Compounds, compositions, and methods for altering insect and organism behavior” (BASF Corporation, priority 2013, dated 2024).
